Measured values reported in PMC4472782, “Antibacterial Characterization of Novel Synthetic Thiazole Compounds against Methicillin-Resistant Staphylococcus pseudintermedius” (PLoS ONE, 2015).
Converted amounts (≈) assume the structure as drawn. Counter-ions that a name gives are not always drawn. Like-named read-outs stand apart in the source and are kept apart here.

Columns and labels:
MRSP SP3 [1] = experiment: Post-antibiotic effect against MRSP; assay type: cell-based, Staphylococcus pseudintermedius; details: 4 × MIC for one hour
Procedure: A tube containing untreated bacterial cells served as a control. Afterward, the compound/antibiotic was washed out by diluting bacteria 1:1000 in MHB. Counts of CFU for all cultures were obtained after washing. Aliquots (100 μL) of bacteria were removed every hour (for 10 hours), serially diluted in PBS, and plated on TSA plates. TSA plates were incubated for 20 hours at 37°C before CFU values were determined.

[2] = test system: methicillin-resistant Staphylococcus pseudintermedius; experiment: MIC by broth microdilution against MRSP clinical isolates; assay type: cell-based; details: for MIC50: Staphylococcus pseudintermedius
Procedure: (§1) Fifteen isolates of S. pseudintermedius (nine MSSP and six MRSP), identified at the Indiana Animal Disease Diagnostic Laboratory from specimens collected from dogs admitted to the small animal teaching hospital at Purdue University, were included in the study. The specimens were not collected specifically for this research study but were obtained from patients admitted to the hospital for treatment. Clinical specimens were inoculated onto 5% sheep blood agar and incubated at 35°C for 18–24 hours. Standard methods including examination of colony morphology and hemolysis and biochemical tests such as tube coagulase, Voges-Proskauer (VP) and fermentation tests for maltose, trehalose and lactose, were used in addition to matrix-assisted laser desorption ionization time of flight mass spectrometry to identify isolates. Antimicrobial susceptibility was determined by broth microdilution using the SensiTitre (Thermofisher Scientific).
(§2) Bacteria were prepared in phosphate-buffered saline (PBS) until a McFarland standard of 0.5 was achieved. The solution was subsequently diluted 1:300 in Mueller-Hinton broth (MHB) to reach a starting inoculum of 1 × 10^5 colony-forming units (CFU/mL). Bacteria were then transferred to a 96-well microtiter plate. Thiazole compounds and antibiotics were added (in triplicate) to wells in the first row of the microtiter plate and then serially diluted along the vertical axis. […] The MIC was categorized as the concentration where there was no visible growth of bacteria observed.

[3] = test system: methicillin-sensitive Staphylococcus pseudintermedius; experiment: MIC by broth microdilution against MSSP clinical isolates; assay type: cell-based; details: for MIC50: lowest concentration inhibiting growth in 50% of isolates; for MIC: read-out: MIC Range
Procedure: as §1, §2

[4] = test system: methicillin-sensitive Staphylococcus pseudintermedius; experiment: MBC determination against MSSP clinical isolates; assay type: cell-based; details: nine MSSP isolates; for MBC: Staphylococcus pseudintermedius, lowest concentration that killed 50% of isolates, read-out: MBC50
Procedure: (§3) The MBC was determined by plating 5 μL from wells on the 96-well microtiter plate (where the MIC was determined) where no growth was observed onto Tryptic soy agar (TSA) plates. […] The MBC was categorized as the concentration where ≥99% reduction in bacterial cell count was observed.

[5] = test system: methicillin-resistant Staphylococcus pseudintermedius; experiment: MBC determination against MRSP clinical isolates; assay type: cell-based; details: for MBC: Staphylococcus pseudintermedius, read-out: MBC50
Procedure: as §3

MRSP SP3 [6] = experiment: Time-kill analysis against MRSP; assay type: cell-based, Staphylococcus pseudintermedius; details: 4 × MIC; for time required to completely eliminate MRSP: MRSP SP3, 24 hour incubation at 37°C
Procedure: MRSP SP3 cells in late logarithmic growth phase were diluted to ~1 × 10^6 CFU/mL and exposed to concentrations equivalent to 4 × MIC (in triplicate) of thiazole compounds 1–6 and rifampicin in MHB. Samples (20 μL) were collected after 0, 2, 4, 6, 8, 10, 12, and 24 hours of incubation at 37°C and subsequently serially diluted in PBS. Bacteria were then transferred to TSA plates and incubated at 37°C for 20–24 hours before viable CFU/mL values were determined.

[7] = test system: murine macrophage cell line (J774.A1); experiment: In vitro cytotoxicity analysis (MTS assay); assay type: cell-based; details: 10 μg/mL, J774.A1, two hours
Procedure: Compounds were assayed at concentrations of 5 μg/mL, 10 μg/mL, 20 μg/mL, and 40 μg/mL against a murine macrophage cell line (J774.A1) (ATCC TIB-67, American Type Culture Collection (ATCC), Manassas, VA, USA) to determine the potential toxic effect in vitro. Cells were cultured in Dulbeco’s modified Eagle’s medium (Sigma-Aldrich, St. Louis, MO, USA) with 10% fetal bovine serum (USA Scientific, Inc.) at 37°C with 5% CO2. Controls received DMSO alone at a concentration equal to that in drug-treated cell samples. The cells were incubated with the compounds in a 96-well plate at 37°C and 5.0% CO2 for two hours prior to addition of the assay reagent MTS 3-(4,5-dimethylthiazol-2-yl)-5-(3-carboxymethoxyphenyl)-2-(4-sulfophenyl)-2H-tetrazolium) (Promega, Madison, WI, USA). Absorbance readings were taken using a kinetic ELISA microplate reader (Molecular Devices, Sunnyvale, CA, USA). The quantity of viable cells after treatment with each compound was expressed as a percentage of the control, DMSO.
(§4) All statistical analyses were performed with GraphPad Prism 6.0 (GraphPad Software, La Jolla, CA). Data generated from cytotoxicity analysis of the thiazole compounds against J774.A1 cells and the 260 and 280 nm cell leakage analysis were analyzed using one-way ANOVA, with post hoc Tukey's multiple comparisons test (P < 0.05).

MRSP SP3 [8] = experiment: Checkerboard assay of thiazole compounds with oxacillin; assay type: cell-based, Staphylococcus pseudintermedius; details: for ƩFIC: combination with oxacillin, ≤ 0.5 synergistic, > 0.5 to ≤ 4.0 indifference, > 4 antagonistic; for relationship with oxacillin: checkerboard assay
Procedure: The relationship between the thiazole compounds and oxacillin was assessed via a standard checkerboard assay. Bacteria (MRSP SP3) equivalent to a McFarland standard of 0.5 were prepared in PBS. The bacteria were next diluted in MHB to achieve a starting cell density of 1 × 10^5 CFU/mL. MHB was transferred to all wells of a 96-well microtiter plate. […] Oxacillin was serially diluted along the abscissa of the microtiter plate while the thiazole compound was serially diluted along the ordinate. The plate was incubated for 22–24 hours at 37°C. The MIC of the test compound in combination with oxacillin was determined as the lowest concentration of each compound/antibiotic where no visible growth of bacteria was observed. The fractional inhibitory concentration index (ƩFIC) was calculated for each combination as described previously. A synergistic relationship was classified as an FIC index less than or equal to 0.5. […]

MRSP SP3 [9] = experiment: Cell membrane disruption (260/280 nm cell leakage) analysis; assay type: cell-based, Staphylococcus pseudintermedius; details: for absorbance (260 and 280 nm leakage) compared with untreated cells, statistical result: MRSP SP3, 30 minutes, one-way ANOVA, Tukey, P ≤ 0.05
Procedure: In order to investigate the antimicrobial effect of the thiazole compounds on the integrity of the bacterial cell membrane, the release of 260 and 280 nm absorbing components was determined spectrophotometrically. […] Untreated MRSP SP3 cells or cells treated with vancomycin (inhibits cell wall synthesis in bacterial cells) served as negative controls. For the release of 260 and 280 nm absorbing material, the bacterial suspension (control) was treated with lysostaphin (in 50 mM Tris-HCl, pH 8.00) for 30 minutes. Lysostaphin was used as a positive control due to its mode of action being the disruption of the cross-linking of the pentaglycin bridges in the cell wall of staphylococci bacteria. The absorbance of cell supernatant at 260 and 280 nm was determined using a spectrophotometer (Jenway 6305). The average OD260 and OD280 values of duplicates of each treatment option were calculated and expressed as the proportion of average OD260 (or OD280) for each treatment option compared to the average OD260 (or OD280) for the positive control (lysostaphin).
as §4

MRSP (SP3) = experiment: Multi-step resistance selection; assay type: cell-based, Staphylococcus pseudintermedius; details: for shift in the MIC over ten passages: MRSP SP3, ten serial passages; for MIC: Staphylococcus pseudintermedius
Procedure: To assess the ability of MRSP to develop resistance to the thiazole compounds, a multi-step resistance selection experiment was performed, as described elsewhere. The broth microdilution method for MIC determination against a clinical isolate of MRSP (SP3) was repeated for ten passages over a period of ten days. The initial inoculum was prepared to a McFarland standard of 0.5. The solution was subsequently diluted 1:300 in MHB to reach a starting inoculum of 1 × 10^5 CFU/mL. For each subsequent passage, the inoculum for the MIC determination was adjusted to a final density of approximately 5 × 10^5 CFU/mL using the contents of a well containing a subinhibitory concentration of the compound (where bacterial growth was observed from the previous passage). Bacteria were then transferred to a new 96-well microtiter plate.

[10] = six MRSP isolates, triplicate, read-out: MIC50

Row | Molecule | Post-antibiotic Effect (MRSP SP3 [1]) | MIC50 [2, 10] | MIC50 ([3]; nine MSSP isolates, triplicate) | MIC ([3]; nine MSSP isolates, triplicate) | MBC [4] | MBC ([5]; six MRSP isolates) | time required to completely eliminate MRSP (MRSP SP3 [6]) | toxicity to murine macrophage cells (MTS assay) [7] | ƩFIC (MRSP SP3 [8]) | absorbance (260 and 280 nm leakage) compared with untreated cells, statistical result (MRSP SP3 [9]) | MIC Range ([2]; six MRSP isolates, triplicate) | MBC Range [4] | MBC Range ([5]; six MRSP isolates) | shift in the MIC over ten passages (MRSP (SP3)) | MIC (MRSP (SP3); read-out: initial MIC) | other results
1 | CCC[C@@H]1C[C@@H](C(=O)N[C@@H]([C@H]2O[C@H](SC)[C@H](O)[C@@H](O)[C@H]2O)[C@H](C)Cl)N(C)C1 [Clindamycin, Clindamycin hydrochloride monohydrate, reference compound] | 2 h | 0.48 µg/mL | 0.48 µg/mL | 0.24 to 61.4 µg/mL | 0.48 µg/mL | 30.7 µg/mL |  |  |  |  |  |  |  |  |  | Post-antibiotic Effect (MRSP SP3 [1]; listed as clindamycin): two hours
2 | C/C(=N\NC(=N)N)c1sc(-c2ccc(-c3ccccc3)cc2)nc1C [Compound 2] | 8 h | 0.46 µg/mL (≈ 1.32 µM) | 0.3 µg/mL (≈ 0.858 µM) | 0.15 to 0.61 µg/mL (≈ 0.429 to 1.75 µM) | 0.61 µg/mL (≈ 1.75 µM) | 0.61 µg/mL (≈ 1.75 µM) | eight hours | toxic | 0.56 | no statistical difference | 0.15 to 0.61 µg/mL | 0.15 to 2.42 µg/mL | 0.30 to 0.81 µg/mL |  |  | intracellular content (at 260 nm) released compared to cells treated with lysostaphin (MRSP SP3 [9]; 4 × MIC, 30 minutes, MRSP SP3): Less than 20%
3 | C/C(=N\NC(=N)N)c1sc(-c2ccc(-c3ccc(F)cc3)cc2)nc1C [Compound 4] | >9 h |  | 0.73 µg/mL (≈ 1.99 µM) | 0.18 to 2.94 µg/mL (≈ 0.49 to 8 µM) | 1.1 µg/mL (≈ 2.99 µM) |  | 12 h | not toxic | 0.63 |  | 0.37 to 1.47 µg/mL | 0.18 to 2.94 µg/mL |  | two-fold increase | 1.47 µg/mL (≈ 4 µM) | MIC50 [2]: 1.47 µg/mL (≈ 4 µM); MBC [5]: 1.47 µg/mL (≈ 4 µM)
4 | C/C(=N\NC(=N)N)c1sc(-c2ccc(-c3ccc(C(F)(F)F)cc3)cc2)nc1C [Compound 5] | 8 h | 0.42 µg/mL (≈ 1.01 µM) | 0.42 µg/mL (≈ 1.01 µM) |  | 0.42 µg/mL (≈ 1.01 µM) | 0.42 µg/mL (≈ 1.01 µM) | eight hours | not toxic | 0.38 |  | 0.21 to 1.67 µg/mL | 0.21 to 6.67 µg/mL | 0.21 to 3.34 µg/mL | two-fold increase | 1.67 µg/mL (≈ 4 µM) | relationship with oxacillin (MRSP SP3 [8]): synergistic; MIC [3]: 0.21 to 1.67 µg/mL (≈ 0.503 to 4 µM); MIC (MRSP (SP3); read-out: MIC after the second serial passage (stable until the seventh passage)): 3.34 µg/mL (≈ 8 µM); MIC (MRSP (SP3); read-out: MIC at the seventh passage): 6.68 µg/mL (≈ 16 µM)
5 | C/C(=N\NC(=N)N)c1sc(-c2ccc(-c3cccc4ccccc34)cc2)nc1C [Compound 6] | >9 h | 0.4 µg/mL (≈ 1 µM) | 0.8 µg/mL (≈ 2 µM) | 0.2 to 1.6 µg/mL (≈ 0.501 to 4 µM) | 1.06 µg/mL (≈ 2.65 µM) | 0.8 µg/mL (≈ 2 µM) | within two hours | toxic | 0.38 |  | 0.20 to 1.60 µg/mL | 0.20 to 3.19 µg/mL | 0.20 to 1.60 µg/mL | four-fold increase | 1.6 µg/mL (≈ 4 µM) | relationship with oxacillin (MRSP SP3 [8]): synergistic
6 | CO[C@H]1/C=C/O[C@@]2(C)Oc3c(C)c(O)c4c(O)c(c(/C=N/N5CCN(C)CC5)c(O)c4c3C2=O)NC(=O)/C(C)=C\C=C\[C@H](C)[C@H](O)[C@@H](C)[C@@H](O)[C@@H](C)[C@H](OC(C)=O)[C@@H]1C [Rifampicin, rifampicin, reference compound] | >9 h | < 0.41 µg/mL | < 0.41 µg/mL | < 0.41 µg/mL | < 0.41 µg/mL | < 0.41 µg/mL |  |  |  |  | <0.41 µg/mL | <0.41 µg/mL | <0.41 µg/mL |  |  | time-kill behaviour (in words) (MRSP SP3 [6]; MRSP SP3): slow bactericidal activity against MRSP SP3 within the first eight hours of the assay before rapid bacterial re-growth; Post-antibiotic Effect (MRSP SP3 [1]; listed as rifampicin): > 9 h
7 | CN[C@H](CC(C)C)C(=O)N[C@H]1C(=O)N[C@@H](CC(N)=O)C(=O)N[C@H]2C(=O)N[C@H]3C(=O)N[C@H](C(=O)N[C@H](C(=O)O)c4cc(O)cc(O)c4-c4cc3ccc4O)[C@H](O)c3ccc(c(Cl)c3)Oc3cc2cc(c3O[C@@H]2O[C@H](CO)[C@@H](O)[C@H](O)[C@H]2O[C@H]2C[C@](C)(N)[C@H](O)[C@H](C)O2)Oc2ccc(cc2Cl)[C@H]1O [vancomycin, vancomycin hydrochloride, reference compound] |  |  |  |  |  |  |  |  |  | no statistical difference |  |  |  |  |  | 
8 | lysostaphin: positive control; disrupts cross-linking of the pentaglycin bridges in the cell wall of staphylococci [reference compound] |  |  |  |  |  |  |  |  |  | significant difference |  |  |  |  |  | 
